Test results: ChEMBL document CHEMBL5230136, “A review: Biologically active 3,4-heterocycle-fused coumarins” (Eur J Med Chem, 2021)

How the values were obtained:
HeLa = assay: cells; conditions: Homo sapiens
Description: Cytotoxicity against human HeLa cells at 50 uM by MTT reduction assay

K562 = assay: cells; conditions: Homo sapiens
Description: Cytotoxicity against human K562 cells at 50 uM by MTT reduction assay

LS180 = assay: cells; conditions: Homo sapiens
Description: Cytotoxicity against human LS180 cells at 50 uM by MTT reduction assay

Staphylococcus aureus [1] = assay: Antibacterial activity against Staphylococcus aureus assessed as zone of inhibition at 20 mg/ml; format: functional; conditions: read-out: IZ
Bacillus cereus = assay: Antibacterial activity against Bacillus cereus assessed as zone of inhibition at 20 mg/ml; format: functional; conditions: read-out: IZ
Escherichia coli [2] = assay: Antibacterial activity against Escherichia coli assessed as zone of inhibition at 20 mg/ml; format: functional; conditions: read-out: IZ
Pseudomonas aeruginosa = assay: Antibacterial activity against Pseudomonas aeruginosa assessed as zone of inhibition at 20 mg/ml; format: functional; conditions: read-out: IZ
Serratia marcescens = assay: Antibacterial activity against Serratia marcescens assessed as zone of inhibition at 20 mg/ml; format: functional; conditions: read-out: IZ
Micrococcus luteus = assay: Antibacterial activity against Micrococcus luteus assessed as zone of inhibition at 20 mg/ml; format: functional; conditions: read-out: IZ
Candida albicans = assay: Antifungal activity against Candida albicans assessed as zone of inhibition at 20 mg/ml; format: functional; conditions: read-out: IZ
Trichophyton rubrum = assay: Antifungal activity against Trichophyton rubrum assessed as zone of inhibition at 20 mg/ml; format: functional; conditions: read-out: IZ
Aspergillus flavus = assay: Antifungal activity against Aspergillus flavus assessed as zone of inhibition at 20 mg/ml; format: functional; conditions: read-out: IZ
Fusarium oxysporum = assay: Antifungal activity against Fusarium oxysporum assessed as zone of inhibition at 20 mg/ml; format: functional; conditions: read-out: IZ
Scopulariopsis = assay: Antifungal activity against Scopulariopsis assessed as zone of inhibition at 20 mg/ml; format: functional; conditions: read-out: IZ
Geotrichum candidum = assay: Antifungal activity against Geotrichum candidum assessed as zone of inhibition at 20 mg/ml; format: functional; conditions: read-out: IZ
MCF7 = assay: Cytotoxicity against human MCF7 cells […] by MTT reduction assay; format: functional, cell-based
Staphylococcus aureus [3] = assay: Antibacterial activity against Staphylococcus aureus assessed as zone of inhibition at 100 ug/ml; format: functional; conditions: read-out: IZ
Bacillus subtilis = assay: Antibacterial activity against Bacillus subtilis assessed as zone of inhibition at 100 ug/ml; format: functional; conditions: read-out: IZ
Escherichia coli [4] = assay: Antibacterial activity against Escherichia coli assessed as zone of inhibition at 100 ug/ml; format: functional; conditions: read-out: IZ
Salmonella typhimurium = assay: Antibacterial activity against Salmonella typhimurium DT104 assessed as zone of inhibition at 100 ug/ml; format: functional, Salmonella enterica subsp. enterica serovar Typhimurium; conditions: Salmonella enterica, read-out: IZ

| IC50 (HeLa) [µM] | IC50 (K562) [µM] | IC50 (LS180) [µM] | Structure (SMILES) | zone of inhibition at 20000 µg/mL (Staphylococcus aureus [1]) [mm] | zone of inhibition at 20000 µg/mL (Bacillus cereus) [mm] | zone of inhibition at 20000 µg/mL (Escherichia coli [2]) [mm] | zone of inhibition at 20000 µg/mL (Pseudomonas aeruginosa) [mm] | zone of inhibition at 20000 µg/mL (Serratia marcescens) [mm] | zone of inhibition at 20000 µg/mL (Micrococcus luteus) [mm] | zone of inhibition at 20000 µg/mL (Candida albicans) [mm] | zone of inhibition at 20000 µg/mL (Trichophyton rubrum) [mm] | zone of inhibition at 20000 µg/mL (Aspergillus flavus) [mm] | zone of inhibition at 20000 µg/mL (Fusarium oxysporum) [mm] | zone of inhibition at 20000 µg/mL (Scopulariopsis) [mm] | zone of inhibition at 20000 µg/mL (Geotrichum candidum) [mm] | IC50 (MCF7) [µM] | zone of inhibition at 100 µg/mL (Staphylococcus aureus [3]) [mm] | zone of inhibition at 100 µg/mL (Bacillus subtilis) [mm] | zone of inhibition at 100 µg/mL (Escherichia coli [4]) [mm] | zone of inhibition at 100 µg/mL (Salmonella typhimurium) [mm] |
| --- | --- | --- | --- | --- | --- | --- | --- | --- | --- | --- | --- | --- | --- | --- | --- | --- | --- | --- | --- | --- |
| > 100 | 57.4 | > 100 | Cc1cccc(-c2c3c(nc4c2c(=O)oc2ccccc24)CCCC3=O)c1 | – | – | – | – | – | – | – | – | – | – | – | – | – | – | – | – | – |
| – | – | – | CCOC(=O)c1sc2c(c1NC(=O)CN1CCOCC1)c(=O)oc1ccccc12 | 0 | 0 | 0 | 9 | 0 | 0 | 0 | 0 | 0 | 0 | 0 | 0 | – | – | – | – | – |
| > 100 | 50.7 | > 100 | O=C1CCCc2nc3c(c(-c4cccc(Cl)c4)c21)c(=O)oc1ccccc13 | – | – | – | – | – | – | – | – | – | – | – | – | 71.7 | – | – | – | – |
| > 100 | > 100 | > 100 | COc1cccc(-c2c3c(nc4c2c(=O)oc2ccccc24)CCCC3=O)c1 | – | – | – | – | – | – | – | – | – | – | – | – | > 100 | – | – | – | – |
| 37.7 | 37.5 | > 100 | O=C1CCCc2nc3c(c(-c4ccc(Cl)cc4)c21)c(=O)oc1ccccc13 | – | – | – | – | – | – | – | – | – | – | – | – | 41.8 | – | – | – | – |
| – | – | – | CCOC(=O)c1sc2c(c1NC(=O)CCl)c(=O)oc1ccccc12 | 8 | 0 | 0 | 0 | 0 | 0 | 10 | 0 | 0 | 0 | 0 | 0 | – | – | – | – | – |
| – | – | – | CCOC(=O)c1sc2c(c1NC(=O)CNc1ccc(C)cc1)c(=O)oc1ccccc12 | 0 | 0 | 0 | 0 | 0 | 0 | 13 | 0 | 0 | 0 | 0 | 8 | – | – | – | – | – |
| – | – | – | Cc1ccc2c(c1)oc(=O)c1c(-c3cn(-c4ccccc4)nc3-c3ccccc3)cc(-c3ccc(Cl)cc3Cl)nc12 | – | – | – | – | – | – | – | – | – | – | – | – | – | 16 | 19 | 21 | 19 |
| – | – | – | CCOC(=O)c1sc2c(c1NC(=O)CNc1ccccc1)c(=O)oc1ccccc12 | 0 | 0 | 0 | 0 | 0 | 0 | 13 | 10 | 12 | 0 | 10 | 11 | – | – | – | – | – |
| – | – | – | Cc1ccc2c(c1)oc(=O)c1c(-c3cn(-c4ccccc4)nc3-c3ccccc3)cc(-c3c(O)c(Cl)cc(Br)c3O)nc12 | – | – | – | – | – | – | – | – | – | – | – | – | – | 18 | 16 | 19 | 12 |
| – | – | – | Cc1ccc2c(c1)oc(=O)c1c(-c3cn(-c4ccccc4)nc3-c3ccccc3)cc(-c3c(O)c(I)c(C)c(Cl)c3Cl)nc12 | – | – | – | – | – | – | – | – | – | – | – | – | – | 15 | 12 | 9 | 12 |
| – | – | – | Cc1ccc2c(c1)oc(=O)c1c(-c3cn(-c4ccccc4)nc3-c3ccccc3)cc(-c3c(O)c(I)cc(Cl)c3Cl)nc12 | – | – | – | – | – | – | – | – | – | – | – | – | – | 16 | 8 | 18 | 14 |
| – | – | – | Cc1ccc2c(c1)oc(=O)c1c(-c3cn(-c4ccccc4)nc3-c3ccccc3)cc(-c3c(O)ccc(Cl)c3Cl)nc12 | – | – | – | – | – | – | – | – | – | – | – | – | – | 8 | 10 | 12 | 10 |
| > 100 | > 100 | > 100 | Cc1ccccc1-c1c2c(nc3c1c(=O)oc1ccccc13)CCCC2=O | – | – | – | – | – | – | – | – | – | – | – | – | > 100 | – | – | – | – |
| – | – | – | CCOC(=O)c1sc2c(c1NC(=O)CNc1ccc(S(=O)(=O)NN=N)cc1)c(=O)oc1ccccc12 | 10 | 0 | 9 | 9 | 0 | 0 | 13 | 0 | 0 | 0 | 0 | 0 | – | – | – | – | – |
| > 100 | > 100 | > 100 | COc1ccccc1-c1c2c(nc3c1c(=O)oc1ccccc13)CCCC2=O | – | – | – | – | – | – | – | – | – | – | – | – | > 100 | – | – | – | – |
